Publication PMC8869358, “High-Throughput Chemical Screening and Structure-Based Models to Predict hERG Inhibition” (Biology, 2022)
Structures can show the parent of a compound that is named as a salt.

Molecular target: hERG (Homo sapiens, UniProt Q12809)
Assay: cell-based
Conditions: (-LOG10(IC50), µM)

Chain of hERG (Q12809 whole entry): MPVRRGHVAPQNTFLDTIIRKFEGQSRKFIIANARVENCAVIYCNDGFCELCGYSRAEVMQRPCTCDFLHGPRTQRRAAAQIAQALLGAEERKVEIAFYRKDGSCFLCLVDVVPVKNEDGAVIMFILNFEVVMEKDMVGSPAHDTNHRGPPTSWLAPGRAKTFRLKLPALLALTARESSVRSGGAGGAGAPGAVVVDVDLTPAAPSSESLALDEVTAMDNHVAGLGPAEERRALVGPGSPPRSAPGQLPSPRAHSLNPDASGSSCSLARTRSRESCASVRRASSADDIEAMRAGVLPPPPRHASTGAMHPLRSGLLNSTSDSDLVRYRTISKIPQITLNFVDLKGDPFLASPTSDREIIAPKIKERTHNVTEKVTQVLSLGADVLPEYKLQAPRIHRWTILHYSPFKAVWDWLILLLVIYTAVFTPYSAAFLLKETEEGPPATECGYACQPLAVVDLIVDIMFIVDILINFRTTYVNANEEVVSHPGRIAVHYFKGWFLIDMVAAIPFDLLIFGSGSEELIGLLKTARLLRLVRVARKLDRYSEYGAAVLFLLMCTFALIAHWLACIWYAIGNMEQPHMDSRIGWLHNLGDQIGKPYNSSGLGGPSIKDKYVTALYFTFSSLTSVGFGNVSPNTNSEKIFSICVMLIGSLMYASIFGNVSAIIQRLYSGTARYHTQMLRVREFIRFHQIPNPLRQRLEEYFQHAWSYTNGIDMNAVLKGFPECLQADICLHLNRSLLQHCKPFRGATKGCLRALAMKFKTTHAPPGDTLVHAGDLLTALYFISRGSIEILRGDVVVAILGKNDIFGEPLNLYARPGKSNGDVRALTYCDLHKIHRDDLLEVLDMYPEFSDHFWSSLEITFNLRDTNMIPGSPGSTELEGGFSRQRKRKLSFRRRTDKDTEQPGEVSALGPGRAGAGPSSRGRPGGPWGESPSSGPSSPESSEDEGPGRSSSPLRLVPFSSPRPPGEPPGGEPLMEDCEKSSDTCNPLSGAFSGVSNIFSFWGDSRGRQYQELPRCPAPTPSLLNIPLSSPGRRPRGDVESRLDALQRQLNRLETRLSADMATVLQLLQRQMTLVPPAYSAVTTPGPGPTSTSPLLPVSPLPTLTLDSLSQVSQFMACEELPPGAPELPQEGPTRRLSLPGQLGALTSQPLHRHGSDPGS

Row | Structure (SMILES) | IC50
1 | CCCC[P+](CCCC)(CCCC)CCCC [Tetrabutylphosphonium chloride] | 23.2 µM
2 | COC(=O)CSc1cc(N=c2sc(=O)n3n2CCCC3)c(F)cc1Cl [Fluthiacet-methyl] | 38.9 µM
3 | O=C1c2ccccc2S(=O)(=O)N1CCCCN1CCN(c2ncccn2)CC1 [Ipsapirone] | 16.9 µM
4 | ClC(Cl)=C(c1ccc(Cl)cc1)c1ccccc1Cl [o,p'-DDE] | 21 µM
5 | CCCCCCCCCCn1cc[n+](C)c1 [1-Decyl-3-methylimidazolium chloride] | 16.7 µM
6 | ClC1=C(Cl)C2(Cl)C3C(Cl)C(Cl)CC3C1(Cl)C2(Cl)Cl (centres unmarked) [Chlordane] | 30.9 µM
7 | O=C1C=CC(=O)N1c1ccccc1 [1-Phenyl-1H-pyrrole-2,5-dione] | 50.9 µM
8 | Clc1ccc(C(c2ccccc2Cl)C(Cl)(Cl)Cl)cc1 (centres unmarked) [o,p'-DDT] | 21.5 µM
9 | C(=C(c1ccccc1)c1ccccc1)c1ccccc1 [Triphenylethylene] | 18.1 µM
10 | CN1[C@@H]2CC[C@H]1C[C@@H](OC(=O)c1c[nH]c3ccccc13)C2 [Tropisetron] | 12.9 µM
11 | Cl[C@H]1[C@H](Cl)[C@@H](Cl)[C@H](Cl)[C@@H](Cl)[C@H]1Cl [delta-Hexachlorocyclohexane] | 51.9 µM
12 | CCCCc1cc2ccccc2c(OCCN(C)C)n1 [Dimethisoquin hydrochloride] | 3.65 µM
13 | O=C(Oc1ccccc1)c1ccccc1C(=O)Oc1ccccc1 [Diphenyl phthalate] | 15.5 µM
14 | O=C(OCCOCCO)c1ccccc1Nc1cccc(C(F)(F)F)c1 [Etofenamate] | 13.4 µM
15 | CCCCCCCCCCCCN [Dodecylamine hydrochloride] | 13.3 µM
16 | Cc1c(Cl)c(=O)oc2cc(OP(=O)(OCCCl)OCCCl)ccc12 [Haloxon] | 22.1 µM
17 | CCOP(=S)(OCC)Oc1ccc2c(C)c(Cl)c(=O)oc2c1 [Coumaphos] | 40.4 µM
18 | O=C1CCCCCCCCCCOCCCCO1 [12-Oxahexadecanolide] | 49 µM
19 | CN1Cc2c(N)cccc2C(c2ccccc2)C1 (centres unmarked) [Nomifensine] | 38.9 µM
20 | Clc1ccc(C(Cn2ccnc2)OCc2ccc(Sc3ccccc3)cc2)c(Cl)c1 (centres unmarked) [Fenticonazole] | 12.5 µM
21 | Nc1ccc(Oc2ccc(Cl)cc2)cc1 [4-Chloro-4'-aminodiphenyl ether] | 41.1 µM

Row | Structure (SMILES) | IC50
22 | O=[N+]([O-])c1cc(C(F)(F)F)c(Cl)c([N+](=O)[O-])c1Cl [2,4-Dichloro-1,3-dinitro-5-(trifluoromethyl)benzene] | 34.7 µM
23 | Cc1ccc(O)c(-n2nc3ccccc3n2)c1 [2-(2H-Benzotriazol-2-yl)-4-methylphenol] | 36 µM
24 | N#CC1(N=NC2(C#N)CCCCC2)CCCCC1 [1,1'-Diazene-1,2-diyldicyclohexanecarbonitrile] | 43.6 µM
25 | CCn1c2ccccc2c2cc([N+](=O)[O-])ccc21 [9-Ethyl-3-nitro-9H-carbazole] | 28.6 µM
26 | CCN(CC)CCNc1ccc(CO)c2sc3ccccc3c(=O)c12 [Hycanthone] | 10.7 µM
27 | CCOc1ccccc1OCCN[C@H](C)Cc1ccc(OC)c(S(N)(=O)=O)c1 [Tamsulosin hydrochloride] | 19.7 µM
28 | C[C@@H](C1=C(CCN(C)C)Cc2ccccc21)c1ccccn1 [(S)-(+)-Dimethindene maleate] | 13.4 µM
29 | CCCCCCCCCCCCCCCC[N+](C)(C)C [Hexadecyl trimethyl ammonium chloride] | 18.1 µM
30 | COC(=O)C1=C(C)NC(C)=C(C(=O)O[C@@H]2CCCN(Cc3ccccc3)C2)[C@@H]1c1cccc([N+](=O)[O-])c1 (racemic) [rac Benidipine hydrochloride] | 12.5 µM
31 | CCN(CC)CCOC(=O)C(c1ccccc1)C1CCCCC1 (centres unmarked) [Drofenine hydrochloride] | 7.86 µM
32 | CCCCCCCCCCCCCC[N+](C)(C)C [Myristyltrimethylammonium chloride] | 15 µM
33 | CCCCOCCOC(=O)COc1cc(Cl)c(Cl)cc1Cl [2,4,5-T-butotyl] | 23.2 µM
34 | CC(O)(c1ccc(Cl)cc1)c1ccc(Cl)cc1 [Chlorfenethol] | 46.2 µM
35 | CC(=O)c1ccc2c(c1)N(CCCN(C)C)c1ccccc1S2 [Acetopromazine maleate] | 15.1 µM
36 | CCC(C)(C)c1ccc(CC(C)CN2C[C@@H](C)O[C@@H](C)C2)cc1 (some centres unmarked) [Amorolfine] | 9.16 µM
37 | CN1CCN(c2ccccc2/C=C2\SCCN(c3ccc(Cl)c(Cl)c3)C2=O)CC1 [Elzasonan] | 1.61 µM
38 | CCCCN(CCCC)CCCOC(=O)c1ccc(N)cc1 [Butacaine] | 14.5 µM
39 | CNCCC(Oc1ccccc1OC)c1ccccc1 (centres unmarked) [Nisoxetine] | 9.52 µM
40 | CCN(CCC#N)c1ccc(N=Nc2c(Cl)cc([N+](=O)[O-])cc2Cl)cc1 [C.I. Disperse Orange 37] | 40.4 µM
41 | CC(C)N(C(=O)SCC(Cl)=C(Cl)Cl)C(C)C [Tri-allate] | 20 µM
42 | O=C(c1ccccc1)c1cc(Cl)ccc1O [(5-Chloro-2-hydroxyphenyl)phenylmethanone] | 46.5 µM

Row | Structure (SMILES) | IC50
43 | CN(C)c1ccc(C(=C2C=CC(=[N+](C)C)C=C2)c2ccccc2)cc1 [Malachite green oxalate] | 3.51 µM
44 | CCOC(=O)NNc1ccc(N(CC)CC(C)O)nn1 (centres unmarked) [Cadralazine] | 23.9 µM
45 | ClC1=C(Cl)[C@]2(Cl)[C@@H]3[C@@H]4C[C@@H]([C@H]5O[C@@H]45)[C@@H]3[C@@]1(Cl)C2(Cl)Cl [Dieldrin] | 33.1 µM
46 | C[C@]12CC[C@H]3[C@@H](CCC4=CC(=O)CC[C@@H]43)[C@@H]1CC[C@@H]2OC(=O)CCc1ccco1 [Nandrolone furylpropionate] | 12 µM
47 | CC1C2CC(CC2C2CCCC(O)C2)C1(C)C (centres unmarked) [3-(5,5,6-Trimethylbicyclo[2.2.1]hept-2-yl)cyclohexanol] | 22.7 µM
48 | OC(C#CCN1CCCC1)(c1ccccc1)c1ccccc1 [Butinoline] | 19 µM
49 | O=C(CCCCCCCCc1cccnc1)N1CCC(C=C(c2ccccc2)c2ccccc2)CC1 [Ro 23-7637] | 11 µM
50 | CCCN(CC)CC1COC2(CCC(C(C)(C)C)CC2)O1 (centres unmarked) [Spiroxamine] | 34.7 µM
51 | CC(C)(C)C1(CCc2ccc(Cl)cc2)CO1 (centres unmarked) [2-(2-(4-Chlorophenyl)ethyl)-2-(1,1-dimethylethyl)oxirane] | 23.2 µM
52 | O=C(c1ccc(F)cc1)C1CCN(CCn2c(=O)[nH]c3ccccc3c2=O)CC1 [Ketanserin] | 2.68 µM
53 | CC(C(O)c1ccccc1)N(C)CCOC(c1ccccc1)c1ccccc1 (centres unmarked) [Difeterol] | 1.83 µM
54 | Clc1ccc(C(OCCN2CCCCC2)c2ccccc2)cc1 (centres unmarked) [Cloperastine hydrochloride] | 0.849 µM
55 | COc1ccc2[nH]cc(CCN(C(C)C)C(C)C)c2c1 [5-Methoxy-N,N-diisopropyltryptamine hydrochloride] | 25.2 µM
56 | CCOP(=S)(OCC)SCCSCC [Disulfoton] | 43.3 µM
57 | OC(c1ccc(Cl)cc1)(c1cncnc1)c1ccccc1Cl (centres unmarked) [Fenarimol] | 47.9 µM
58 | COc1cc(N)c(Cl)cc1C(=O)NC1CCN(Cc2ccccc2)CC1 [Clebopride maleate] | 15.7 µM
59 | C=CCCC(=O)/C=C/C1C(C)=CCCC1(C)C (centres unmarked) [Allyl Ionone] | 30.9 µM
60 | Cc1nc2ccccn2c(=O)c1CCN1CCC(C(=O)c2ccc(F)cc2)CC1 [Pirenperone] | 6.74 µM
61 | CCC(=O)c1ccc2c(c1)N(CCCN(C)C)c1ccccc1S2 [Propionylpromazine hydrochloride] | 9.16 µM
62 | CCCCN(CCCC)CC(O)c1cc(Cl)cc2c1-c1ccc(Cl)cc1/C2=C/c1ccc(Cl)cc1 (centres unmarked) [Lumefantrine] | 3.65 µM
